Where a name gives a salt, the structure may show the parent alone. Read-outs that look alike come from different tables or passages of the source.
How the values were obtained:
[1] = target: T1, human jejunal NK2 receptor (Homo sapiens, UniProt P21452); experiment: Antagonism of iodinated tachykinin binding to NK2 receptor (125iodohistidyl-1-neurokinin A, HSKR-1 cell membranes)
T1 construct: expressed in transfected cells; host or cells: HSKR-1 cells (mouse 3T3 fibroblasts)
T1 sequence (P21452 1-398): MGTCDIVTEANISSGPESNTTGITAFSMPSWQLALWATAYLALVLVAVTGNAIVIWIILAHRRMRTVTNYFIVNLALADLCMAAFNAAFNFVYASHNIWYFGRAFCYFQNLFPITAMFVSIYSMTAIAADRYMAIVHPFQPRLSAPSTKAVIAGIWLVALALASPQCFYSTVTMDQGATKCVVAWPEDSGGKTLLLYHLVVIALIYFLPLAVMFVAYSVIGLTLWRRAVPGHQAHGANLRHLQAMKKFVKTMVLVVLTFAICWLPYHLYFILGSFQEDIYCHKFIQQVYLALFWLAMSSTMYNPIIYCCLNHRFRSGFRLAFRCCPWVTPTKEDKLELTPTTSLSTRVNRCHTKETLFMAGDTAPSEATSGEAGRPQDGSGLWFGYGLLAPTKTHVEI
Method: The NK1 receptor affinity of proposed tachykinin antagonists was devaluated in guinea pig lungs (Keystone Biologicals, Cleveland, OH), affinity for the NK2 receptor evaluated in HSKR-1 cells (which are mouse 3T3 fibroblasts expressing the human jejunal NK2 receptor) and NK-3 receptor affinity was evaluated in freshly collected guinea pig cerebral cortex. Tissues or cells were homogenized with a Polytron in 15 volumes of 50 mM Tris-HCl buffer (pH 7.4, 4°C) and centrifuged. The pellet was resuspended in Tris-HCl buffer and was centrifuged; the pellet was washed twice by resuspension. The final pellet was resuspended at a concentration of 40 mg/ml for tissues (guinea pig lung and cerebral cortex) and 20 mg/ml for cells in incubation buffer and remained at room temperature for at least 15 min prior to use. Receptor binding was initiated by addition of 250 µl membrane preparation in duplicate to 0.1 nM of the following radioligands: ^125I-Bolton Hunter Lys-3 labeled substance P; ^125iodohistidyl-1-neurokinin A; and ^125I-Bolton Hunter labeled Lys-4 eledoisin in a final volume of 500 µl of buffer containing 50 mM Tris-HCl (pH 7.4 at room temperature), 0.1% bovine serum albumin, 2 mM MnCl2, 40 µg/ml bacitracin, 4 µg/ml leupeptin and chymostatin, 1 µM thiorphan and various doses of the putative tachykinin antagonists. Incubations were performed at room temperature for 90 min (NK1 receptor assays) or 2 hr (NK2 and NK3 receptor assays); binding was terminated by addition of 50 mM Tris-HCl buffer (pH 7.4, 4°C) and filtration under vacuum through GF/B filters presoaked with 0.1% polyethyleneimine (NK1 receptor assays) or 0.5% bovine serum albumin (NK2 and NK3 receptor assays). Filter bound radioactivity was quantitated in a gamma counter. Nonspecific binding was defined as binding in the presence of 1 µM substance P, neurokinin A, or eledoisin. Specific binding was calculated by subtracting nonspecific binding from total binding. Competition of iodinated SP, NKA, or eledoisin binding by test compounds or standards was expressed as a percentage of this maximum competition. IC50 values (concentration required to inhibit 50% of receptor binding) were generated for each of the test compounds by nonlinear regression using an iterative curve fitting program (GraphPAD Inplot, San Diego, CA).

[2] = target: T2, NK2 receptor (Bos taurus, UniProt P05363); experiment: Antagonism of NK2 receptor mediated (NKA-induced) phosphatidylinositol turnover in SKLKB82#3 cells; type: cell-based
T2 construct: expressed in transfected cells; host or cells: SKLKB82#3 cells
T2 sequence (P05363 1-384): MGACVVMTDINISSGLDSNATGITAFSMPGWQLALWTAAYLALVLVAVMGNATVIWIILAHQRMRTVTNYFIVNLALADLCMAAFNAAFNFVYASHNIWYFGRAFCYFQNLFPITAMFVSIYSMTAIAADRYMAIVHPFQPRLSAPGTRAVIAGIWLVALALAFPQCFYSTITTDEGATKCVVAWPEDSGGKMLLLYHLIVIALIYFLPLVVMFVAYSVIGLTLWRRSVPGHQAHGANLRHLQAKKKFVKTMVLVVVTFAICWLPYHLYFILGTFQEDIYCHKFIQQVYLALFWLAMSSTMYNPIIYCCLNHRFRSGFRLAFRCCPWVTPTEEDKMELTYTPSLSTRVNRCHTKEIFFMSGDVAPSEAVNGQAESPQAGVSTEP
Method: Tachykinin-mediated inositol phosphate accumulation was measured in UCll or SKLKB82#3 cells in the presence and absence of NK1 or NK2 receptor antagonists, respectively. Tissues were incubated in Krebs-Henseleit buffer at 37°C with 95% O2-5% CO2 gassing. Tissues were then incubated with fresh buffer containing 100 µCi of myo-[2-^3H(N)] inositol at 37°C for 60 min with gentle gassing. After washing twice at room temperature in 5 ml buffer containing 10 mM LiCl, tissues were incubated for 30 min at room temperature with a buffer change at 15 min. Buffer was removed and Krebs-Henseleit buffer (containing 40 µg/ml bacitracin, 4 µg/ml each of leupeptin and chymostatin, 0.1% bovine serum albumin and 10 mM each of thiorphan and LiCl) added. After 15 min, SP was added to UCll cells or NKA to SKLKB82#3 cells at various concentrations to start the reaction. After incubation for 60 min at room temperature the reaction was terminated by addition of 930 µl chloroform: methanol (1:2 by volume) to each tube, followed by 310 µl chloroform and 310 µl doubly distilled water. Samples were vortexed, centrifuged, and 0.9 ml of the aqueous (top) phase removed and added to 2 ml ddH2O. The mixture was vortexed and loaded onto a 50% Bio-Rad AG 1-X8 (formate form, 100-200 mesh) exchange column (Bio-Rad Laboratories, Hercules, CA). The columns were washed, in order, with: 1) 10 ml doubly distilled water, 2) 5 ml of 5 mM disodium tetraborate/60 mM sodium formate, and 3) 5 ml of 1 M ammonium formate/0.1 M formic acid. The third elution was collected and 1 ml counted in 7 ml scintillation fluid. A 50 µl aliquot of the organic (bottom) phase was removed, dried in a scintillation vial and counted in 7 ml scintillation fluid.
The ratio of DPM in the aqueous phase aliquot (total inositol phosphates) to the DPM in the 50 µl organic phase aliquot (total [^3H]inositol incorporated) was calculated for each sample. Data are expressed as a percent of agonist-induced accumulation of [^3H]-inositol phosphates over basal levels. The ratios in the presence of test compound and/or standards were compared to the ratios for control samples (i.e. no stimulating agonist). Dose-response graphs were constructed and the abilities of the test compounds to inhibit tachykinin-induced phosphatidylinositol turnover determined with the aid of a computer program. […] Data is expressed as percent stimulation of total inositol phosphate accumulation over basal levels and normalized to the maximum response produced by SP. […] Schild analysis is performed using dose response curves (such as those presented in Figures 1a and 1b) to obtain a value indicative of the strength of a competitive antagonist and is expressed as the pA2, which is the negative logarithm of the molar concentration of antagonist which reduces the effect of a dose of agonist to one-half of that expected at the dose of agonist. […]
Values are mean (95% confidence limits) derived from Schild analysis of 2-3 experiments per compound per receptor.

[3] = Schild analysis, NKA in SKLKB82#3 cells, mean (95% confidence limits), 2-3 experiments

Row | SMILES | IC50 [1] [nM] | Kb [2] [nM] | NK-2 RECEPTOR -SLOPE [2, 3] | affinity for NK2 receptors ([1]; result in words) | antagonism of the receptor mediated NKA induced PI turnover ([2]; SKLKB82#3 cells, Figure 1b, result in words) | IC50 ([1]; HSKR-1 cells (mouse 3T3 fibroblasts expressing human jejunal NK2 receptor), mean of several experiments, read-out: NK-2 IC50) [nM] | Kb ([2]; Schild analysis, NKA in SKLKB82#3 cells, mean (95% confidence limits), 2-3 experiments, read-out: NK-2 RECEPTOR pA2 (converted)) [nM]
1 | COc1cc(C(=O)N2CCC(CCN3CCC(C(N)=O)(c4ccccc4)CC3)(c3ccc(Cl)c(Cl)c3)C2)cc(OC)c1OC (racemic) [Example 3A, 1-[2-[3-(3,4-dichloro-phenyl-3-yl)-1-(3,4,5-trimethoxy-benzoyl)-pyrrolidin-3-yl]-ethyl] -4-phenyl-piperidine-4-carboxylic acid amide hydrochloride] | 21 | 1.78 | 0.73 (0.49-0.97) |  |  |  | 
2 | COc1cc(C(=O)N2CCC(CCN3CCC(C(N)=O)(c4ccccc4)CC3)(c3ccc(Cl)c(Cl)c3)C2)cc(OC)c1OC (stereo not drawn) [Example 3, 1-[2-[3-(3,4-dichloro-phenyl)-1-(3,4,5-trimethoxy-benzoyl)-pyrrolidin-3-yl]-ethyl]-4-phenyl-piperidine-4-carboxylic acid amide] | 15 |  |  | high affinity | dose related antagonism |  | 
3 | COc1cccc(OC)c1C(=O)N1CCC(CCN2CCC(C(N)=O)(c3ccccc3)CC2)(c2ccc(Cl)c(Cl)c2)C1 (racemic) [Example 5A, 1-[2-[3-(3,4-dichloro-phenyl-3-yl)-1-(2,6-dimethoxy-benzoyl)-pyrrolidin-3-yl]-ethyl]-4-phenyl-piperidine-4-carboxylic acid amide hydrochloride] |  |  | 1.11 (0.99-1.23) |  |  | 40 | 44.7

From patent publication EP0696280B1, “SUBSTITUTED PYRROLIDIN-3-YL-ALKYL-PIPERIDINES USEFUL AS TACHYKININ ANTAGONISTS” (MERRELL PHARMACEUTICALS INC., priority 1993, dated 1994)
